Reference: BindingDB's records for doi:10.7270/Q21V5CG8 (Burnham Center For Chemical Genomics, 2011)

Target: T1, Cysteine protease ATG4B (Homo sapiens, UniProt Q9Y4P1)
T1 sequence (Q9Y4P1 whole entry): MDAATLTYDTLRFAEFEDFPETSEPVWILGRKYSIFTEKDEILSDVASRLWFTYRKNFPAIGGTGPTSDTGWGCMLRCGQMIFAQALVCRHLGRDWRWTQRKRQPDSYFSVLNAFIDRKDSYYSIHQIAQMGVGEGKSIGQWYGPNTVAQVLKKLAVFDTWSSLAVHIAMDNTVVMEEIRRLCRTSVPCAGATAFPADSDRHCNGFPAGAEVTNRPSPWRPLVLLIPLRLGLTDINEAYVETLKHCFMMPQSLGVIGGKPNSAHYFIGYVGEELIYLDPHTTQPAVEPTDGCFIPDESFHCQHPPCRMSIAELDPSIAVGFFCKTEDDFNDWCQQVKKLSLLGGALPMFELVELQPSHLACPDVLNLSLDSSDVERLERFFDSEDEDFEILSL
Assay: ATG4B protease inhibitors, dose response, biochemical, fluorescence, set 2 (AID 588584)

Point of comparison: `Oc1ccc2ccccc2c1CN=Nc1nnc(-c2ncc[nH]2)c2ccccc12` [SMR000151639], IC50 5.4 µM. Against it:
- CC1=CC(/C=N/n2c(COc3ccccc3)nc3ccccc3c2=O)C(=O)C([N+](=O)[O-])=C1 (stereo not drawn) [3-[[(E)-(3-methyl-5-nitro-6-oxocyclohexa-2,4-dien-1-ylidene)methyl]amino]-2-(phenoxymethyl)quinazolin-4-one] — 4.2-fold higher, 22.8 µM
- Cc1ccc(NC2=NC(=O)C(=Cc3c(C)[nH]c4ccccc34)S2)cc1 [5-[(2-methyl-1H-indol-3-yl)methylene]-2-[(4-methylphenyl)imino]-1,3-thiazolidin-4-one] — 5.7-fold higher, 30.6 µM
